The record followed here is ChEMBL document CHEMBL5058564, “EUbOPEN Chemogenomics Library 2 (Incucyte)” (2022).

Holding throughout (assay type): toxicity, cell-based
Data set [1] relates to HEK-293T. As to the kind of experiment: Incucyte cell viability with HEK293T. To be noted: human, 10 µM, compound concentration 10 uM.
For data set [2], the system named is U2OS. As to the kind of experiment: Incucyte cell viability with U2OS. To be noted: human, 10 µM, compound concentration 10 uM.
The subject of data set [3] is Fibroblast. As to the kind of experiment: Incucyte cell viability with human fibroblast. To be noted: 10 µM, compound concentration 10 uM.
The mark [4] stands for this setting: 0 h, replicate number 1, timepoint 0 hours.
Where [5] appears, read: 0 h, replicate number 2, timepoint 0 hours.
[6] abbreviates: 6 h, replicate number 1, timepoint 6 hours.
[7] abbreviates: 12 h, replicate number 1, timepoint 12 hours.
Setting [8] is: 18 h, replicate number 1, timepoint 18 hours.
Setting [9] is: 18 h, replicate number 2, timepoint 18 hours.
Where [10] appears, read: 24 h, replicate number 1, timepoint 24 hours.
The mark [11] stands for this setting: 24 h, replicate number 2, timepoint 24 hours.
[12] abbreviates: 6 h, replicate number 2, timepoint 6 hours.
[13] abbreviates: 12 h, replicate number 2, timepoint 12 hours.
Also: unitless GR value; below 1 slowed growth and below 0 cell loss.

As for `C[N+]1(C)[C@@H]2C[C@@H](OC(=O)C(O)(c3cccs3)c3cccs3)C[C@H]1[C@@H]1O[C@@H]12.O.[Br-]` [TIOTROPIUM BROMIDE], the “Growth Rate” value in data set [1] (setting [4]) is on record as 0.54; in data set [1] (setting [5]) it was -0.14; in data set [1] (setting [6]), 0.86; in data set [1] (setting [7]) it was 0.87; in data set [1] (setting [8]), 0.7; in data set [1] (setting [9]), 0.99. The “Growth Rate” value in data set [1] (setting [10]) amounted to 0.79; in data set [1] (setting [11]), 0.91; in data set [2] (setting [4]) it was 0.04; in data set [2] (setting [5]), 0.9; in data set [2] (setting [6]), 0.61; in data set [2] (setting [12]) it was 0.93. Besides, the “Growth Rate” value was 0.64 in data set [2] (setting [7]); 0.68 in data set [2] (setting [8]); 0.86 in data set [2] (setting [10]); -0.05 in data set [3] (setting [5]); -0.47 in data set [3] (setting [6]); 0.71 in data set [3] (setting [7]). Also, the “Growth Rate” value in data set [3] (setting [13]) was found to be 0.99; in data set [3] (setting [8]), 1; in data set [3] (setting [9]), 0.83; in data set [3] (setting [10]), 0.95; in data set [3] (setting [11]), 0.7.
Take `CC(C)Oc1ccc(Cc2ccc(NC3=NCCN3)cc2)cc1`: the “Growth Rate” value in data set [1] (setting [6]) is -0.2; in data set [1] (setting [12]), -0.01; in data set [1] (setting [7]), 0.03; in data set [1] (setting [13]) it was 0.1; in data set [1] (setting [8]), 0.16; in data set [1] (setting [9]), 0.27. The “Growth Rate” value in data set [1] (setting [10]) is 0.24; in data set [1] (setting [11]), 0.21; in data set [2] (setting [4]), -0.1; in data set [2] (setting [5]), 0.45; in data set [2] (setting [6]), 0.26; in data set [2] (setting [12]) it was 0.51. Moreover, the “Growth Rate” value in data set [2] (setting [7]) came out at 0.74; in data set [2] (setting [13]) it was 0.75; in data set [2] (setting [8]), 0.82; in data set [2] (setting [9]), 0.91; in data set [2] (setting [10]) it was 0.84; in data set [2] (setting [11]), 0.95. Further, the “Growth Rate” value was 0.07 in data set [3] (setting [6]); -0.09 in data set [3] (setting [12]); 0.4 in data set [3] (setting [7]); 0.19 in data set [3] (setting [13]); 0.28 in data set [3] (setting [8]); 0.64 in data set [3] (setting [9]). The “Growth Rate” value in data set [3] (setting [10]) turned out to be 0.42; in data set [3] (setting [11]) it was 0.46.
For `CN(C)c1ccnc2sc3c(=O)n(N4CCCCCC4)cnc3c12`, the “Growth Rate” value in data set [1] (setting [4]) is 0.91; in data set [1] (setting [5]) it was 0.47; in data set [1] (setting [12]), 0.98; in data set [2] (setting [5]) it was -1; in data set [2] (setting [6]) it was 0.61; in data set [2] (setting [7]) it was 0.54. Moreover, the “Growth Rate” value was 0.51 in data set [2] (setting [8]); 0.91 in data set [2] (setting [9]); 0.78 in data set [2] (setting [10]); -0.22 in data set [3] (setting [6]); -0.14 in data set [3] (setting [7]); 0.1 in data set [3] (setting [13]). For the same molecule, the “Growth Rate” value in data set [3] (setting [8]) is given as -0.36; in data set [3] (setting [9]), 0.11; in data set [3] (setting [10]), -0.42; in data set [3] (setting [11]) it was -0.22.
Regarding `c1ccc(NCc2ccc(CNc3ccccn3)cc2)nc1`, the “Growth Rate” value turned out to be 0.94 in data set [1] (setting [5]); 0.66 in data set [1] (setting [6]); 0.7 in data set [1] (setting [12]); 0.44 in data set [1] (setting [7]); 0.83 in data set [1] (setting [13]); 0.98 in data set [1] (setting [8]). The “Growth Rate” value is listed as -1 in data set [2] (setting [5]); 0.76 in data set [2] (setting [8]); 0.98 in data set [2] (setting [9]); 0.93 in data set [2] (setting [10]); 1 in data set [3] (setting [12]); 0.23 in data set [3] (setting [7]). Besides, the figures for the “Growth Rate” value in data set [3] (setting [13]), in data set [3] (setting [8]) and in data set [3] (setting [10]) were 0.64, 0.88 and 0.76, respectively.
With `CCC(C)n1ncn(-c2ccc(N3CCN(c4ccc(OC[C@@H]5CO[C@@](Cn6cncn6)(c6ccc(Cl)cc6Cl)O5)cc4)CC3)cc2)c1=O.CCC(C)n1ncn(-c2ccc(N3CCN(c4ccc(OC[C@H]5CO[C@](Cn6cncn6)(c6ccc(Cl)cc6Cl)O5)cc4)CC3)cc2)c1=O` (some centres not stated), the “Growth Rate” value in data set [1] (setting [6]) was -0.37; in data set [1] (setting [12]) it was 0.11; in data set [1] (setting [7]) it was -0.28; in data set [1] (setting [13]), 0.15; in data set [1] (setting [8]) it was 0.44; in data set [1] (setting [9]), 0.02. For the same molecule, the “Growth Rate” value in data set [1] (setting [10]) is recorded as -0.08; in data set [1] (setting [11]) it was 0.33; in data set [2] (setting [4]) it was -0.09; in data set [2] (setting [10]) it was 0.73; in data set [2] (setting [11]) it was 0.94; in data set [3] (setting [4]) it was 0.6. The “Growth Rate” value is -0.02 in data set [3] (setting [5]) and 0.95 in data set [3] (setting [11]).
In the case of `NCCc1cn(S(=O)(=O)c2c(Cl)nc3sccn23)c2ccccc12.O=C(O)C(=O)O`, the “Growth Rate” value was -0.34 in data set [1] (setting [6]); 0.22 in data set [1] (setting [7]); 0.08 in data set [1] (setting [13]); 0.4 in data set [1] (setting [8]); 0.51 in data set [1] (setting [9]); 0.57 in data set [1] (setting [10]). Moreover, the “Growth Rate” value in data set [1] (setting [11]) was 0.52; in data set [2] (setting [6]), -0.18; in data set [2] (setting [12]) it was 0.34; in data set [2] (setting [7]) it was 0.52; in data set [2] (setting [13]), 0.36; in data set [2] (setting [8]) it was 0.72. Moreover, the “Growth Rate” value in data set [2] (setting [9]) is listed as 0.45; in data set [2] (setting [10]) it was 0.87; in data set [2] (setting [11]) it was 0.57; in data set [3] (setting [6]), -0.77; in data set [3] (setting [12]), -0.79; in data set [3] (setting [7]), -0.66. In addition, the “Growth Rate” value in data set [3] (setting [13]) is given as -0.5; in data set [3] (setting [8]) it was -0.67; in data set [3] (setting [9]), -0.42; in data set [3] (setting [10]) it was -0.67; in data set [3] (setting [11]), -0.31.
In the case of `O=S(=O)(c1ccccc1)c1cnc2c(N3CCNCC3)cccc2c1` [INTEPIRDINE], the “Growth Rate” value in data set [1] (setting [4]) is on record as 1; in data set [1] (setting [5]) it was 0.98; in data set [2] (setting [4]) it was -0.78; in data set [2] (setting [12]), 0.23; in data set [2] (setting [13]), 0.78; in data set [2] (setting [9]), 0.82. Besides, the “Growth Rate” value in data set [2] (setting [11]) is reported as 0.84; in data set [3] (setting [4]) it was 0.87; in data set [3] (setting [5]) it was 0.36; in data set [3] (setting [6]) it was 0.23; in data set [3] (setting [7]), 0.57; in data set [3] (setting [8]), 0.61. In addition, the “Growth Rate” value came to 0.94 in data set [3] (setting [9]), 0.42 in data set [3] (setting [10]) and 0.98 in data set [3] (setting [11]).
